Reference: US20260234147A1 (priority 2023, published 2026)
Where two headings read alike, the source gives them in different places.

Key:
hMOR [1] = target: T1, hMOR (Homo sapiens, UniProt P35372); test: cell-based; parameters: expressed in transfected cells
hMOR [2] = target: T1, hMOR; test: Radioligand binding assay (Eurofins Cerep), [3H]DAMGO displacement
hKOR = hKOR (Homo sapiens, UniProt P41145); test: Radioligand binding assay (Eurofins Cerep), [3H]U69,593 displacement; details: read-out: KOR Ki ± SEM
hDOR = hDOR (Homo sapiens, UniProt P41143); test: Radioligand binding assay (Eurofins Cerep), [3H]DADLE displacement; details: read-out: DOR Ki ± SEM
α2A adrenergic receptor = target: T2, α2A adrenergic receptor (Homo sapiens, UniProt P08913); test: Radioligand binding assay (Eurofins Cerep), [3H]RX 821002 displacement; details: read-out: Alpha2A Ki ± SEM
T2 construct: Eurofins Cerep (contract screening)
T2 sequence (P08913 1-465): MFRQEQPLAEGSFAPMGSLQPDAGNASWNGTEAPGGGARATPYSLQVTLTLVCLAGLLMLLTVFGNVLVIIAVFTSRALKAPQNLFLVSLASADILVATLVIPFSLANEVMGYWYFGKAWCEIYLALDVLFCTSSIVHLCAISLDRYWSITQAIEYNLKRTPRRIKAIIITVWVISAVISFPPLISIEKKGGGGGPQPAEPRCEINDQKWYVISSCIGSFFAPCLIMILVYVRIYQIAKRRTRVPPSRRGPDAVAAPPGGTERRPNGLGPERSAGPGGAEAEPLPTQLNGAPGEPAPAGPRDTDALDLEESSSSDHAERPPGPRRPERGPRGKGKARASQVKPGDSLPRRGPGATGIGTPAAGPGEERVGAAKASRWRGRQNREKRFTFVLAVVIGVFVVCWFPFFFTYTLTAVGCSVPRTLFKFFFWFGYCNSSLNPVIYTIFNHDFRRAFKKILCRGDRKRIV

[3] = Metabolic stability in rat liver microsomes; assay type: in vitro ADME; details: for Whole liver clearance, CL int, H: in vitro intrinsic clearance in RLM scaled to whole organ (rat); for RLM stability: rat liver microsomes 1 mg/ml, substrate 1 μM, NADPH, 37° C.
Experimental: In vitro metabolic stability of each compound was determined using rat liver microsomes in triplicate. Verapamil was used as a positive control to check the activity of the microsomes. The incubation mixtures consisted of rat liver microsomes (1 mg microsomal protein/ml), substrate (1 μM), and reduced NADPH (1 mM) in a total volume of 0.4 ml potassium phosphate buffer (50 mM, pH 7.4). Reactions were initiated with the addition of NADPH and kept in an incubator shaker at 37° C. Aliquots of 25 μl were withdrawn at 0, 5, 10, 15, 30, and 60 min and mixed with 125 μl of acetonitrile with formic acid (0.1% v/v) containing phenacetin (50 ng/ml; internal standard) for the termination of the reaction. The samples were then vortex mixed and filtered through a […] 96-well membrane filtration plate under centrifugation at speed of 2000×g for 5 min at 4° C. The filtrates were subjected to UPLC-mass spectrometry (MS/MS) analysis.
The intrinsic clearance of the compounds was calculated using a half-life employing the ‘substrate depletion’ approach. The apparent half-life was calculated from the pseudo-first-order rate constants obtained by linear regression of log (concentration) and time plots. The in vitro intrinsic clearance of IFN was estimated using the formula: […]
Where k is the slope of the line obtained by plotting the natural logarithmic of the percentage of parent remaining versus time and V is the volume of incubation.
The in vitro intrinsic clearance was scaled to whole-organ (hepatic) in vivo intrinsic CL (CLint,H) using the scaling factors available in the literature using equation (Mahmood I. Application of allometric principles for the prediction of pharmacokinetics in human and veterinary drug development. Advanced drug delivery reviews, 2007, 59(11), 1177-1192)
MPPGL represents the microsomal protein per gram of Sprague Dawley rat liver (45 mg/g) and liver weight per kg body weight was 40 g/kg.

[4] = Table A1, data summary #1, read-out: MOR Ki ± SEM
[5] = Table A4, data summary #2, read-out: MOR Ki ± SEM

Sequence of hDOR (P41143 whole entry): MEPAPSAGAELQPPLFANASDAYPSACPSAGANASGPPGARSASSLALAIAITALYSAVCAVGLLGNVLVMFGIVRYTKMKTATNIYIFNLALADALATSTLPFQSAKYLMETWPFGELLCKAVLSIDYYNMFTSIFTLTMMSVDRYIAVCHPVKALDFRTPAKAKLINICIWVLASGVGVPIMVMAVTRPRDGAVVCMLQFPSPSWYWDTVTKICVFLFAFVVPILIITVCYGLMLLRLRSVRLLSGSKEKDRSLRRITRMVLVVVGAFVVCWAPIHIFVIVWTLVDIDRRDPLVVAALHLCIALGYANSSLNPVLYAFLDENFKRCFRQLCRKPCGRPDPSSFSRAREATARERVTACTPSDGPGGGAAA
T1 sequence (P35372 whole entry): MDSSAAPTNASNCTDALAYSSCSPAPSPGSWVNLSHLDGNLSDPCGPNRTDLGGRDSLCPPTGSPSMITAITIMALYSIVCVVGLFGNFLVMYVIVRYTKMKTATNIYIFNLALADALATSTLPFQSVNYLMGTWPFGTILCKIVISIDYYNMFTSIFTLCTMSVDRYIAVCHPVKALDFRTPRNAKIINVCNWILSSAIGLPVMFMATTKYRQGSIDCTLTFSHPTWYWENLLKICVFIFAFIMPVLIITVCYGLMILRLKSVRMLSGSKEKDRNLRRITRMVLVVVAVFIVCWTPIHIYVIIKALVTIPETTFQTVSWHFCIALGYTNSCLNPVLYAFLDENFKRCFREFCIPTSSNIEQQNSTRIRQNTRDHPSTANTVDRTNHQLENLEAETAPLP
Sequence of hKOR (P41145 whole entry): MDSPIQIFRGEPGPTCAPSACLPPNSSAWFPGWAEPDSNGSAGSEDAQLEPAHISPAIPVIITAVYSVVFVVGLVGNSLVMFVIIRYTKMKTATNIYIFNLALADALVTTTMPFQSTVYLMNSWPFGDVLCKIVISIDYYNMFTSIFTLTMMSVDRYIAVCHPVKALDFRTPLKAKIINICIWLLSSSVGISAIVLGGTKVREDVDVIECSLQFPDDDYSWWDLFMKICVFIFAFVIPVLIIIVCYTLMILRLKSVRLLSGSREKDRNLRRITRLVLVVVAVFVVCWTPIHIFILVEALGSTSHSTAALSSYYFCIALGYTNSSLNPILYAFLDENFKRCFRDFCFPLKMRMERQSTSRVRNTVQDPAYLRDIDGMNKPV

SMILES	Emax (hMOR [1]; CHO, read-out: MOR Emax ± SEM (%)) [%]	Ki (hMOR [2]; [4]) [µM]	Ki (hKOR; Table A1, data summary #1) [µM]	Ki (hDOR; Table A1, data summary #1) [µM]	MOR Emax ± SEM (% DAMGO) (hMOR [1]; Table A1, data summary #1)	Ki (hMOR [2]; [5]) [µM]	Ki (hKOR; Table A4, data summary #2) [µM]	Ki (hDOR; Table A4, data summary #2) [µM]	Ki (α2A adrenergic receptor; Table A1, data summary #1) [µM]	Ki (α2A adrenergic receptor; Table A4, data summary #2) [µM]	Whole liver clearance, CL int, H [3] [mL/min/kg]	RLM stability [3] [min]	Ki (hMOR [2]; read-out: Ki at hMOR) [µM]
C[C@@H](NC(=O)[C@@H](N)Cc1ccc(O)cc1)C(=O)NCC(=O)N(C)[C@@H](Cc1ccccc1)C(=O)NCCO [DAMGO, reference compound]	106 ± 2												
CC[C@@H]1CN2CC[C@]3(Nc4cccc(OC)c4C3=O)[C@@H]2C[C@@H]1/C(=C\OC)C(=O)OC [Mitragynine pseudoindoxyl, reference compound]		0.0013	0.15	0.00293	42.4								
CC[C@@H]1CN2CCc3c([nH]c4cccc(OC)c34)[C@@H]2C[C@@H]1/C(=C\OC)C(=O)NC [SUSM-25, (E)-2-((2S,3S,12bS)-3-ethyl-8-methoxy-1,2,3,4,6,7,12,12b-octahydroindolo[2,3-a]quinolizin-2-yl)-3-methoxy-N-methylacrylamide]		4.02 ± 0.728	> 10	> 10		3.52 ± 0.763	> 10	> 10	7.04 ± 1.82	6.74 ± 1.91	8.9	>60	
CCCNC(=O)/C(=C/OC)[C@H]1C[C@H]2c3[nH]c4cccc(OC)c4c3CCN2C[C@H]1CC [SUSM-27, (E)-2-((2S,3S,12bS)-3-ethyl-8-methoxy-1,2,3,4,6,7,12,12b-octahydroindolo[2,3-a]quinolizin-2-yl)-3-methoxy-N-propylacrylamide]		4.56 ± 0.692	> 10	> 10		4.56 ± 0.692	> 10	> 10	2.73 ± 1.26	6.45 ± 2.59	20.8	>60	
CCNC(=O)/C(=C/OC)[C@H]1C[C@H]2c3[nH]c4cccc(OC)c4c3CCN2C[C@H]1CC [SUSM-32, (E)-N-ethyl-2-((2S,3S,12bS)-3-ethyl-8-methoxy-1,2,3,4,6,7,12,12b-octahydroindolo[2,3-a]quinolizin-2-yl)-3-methoxyacrylamide]		4.22 ± 0.752	> 10	> 10		4.22 ± 0.752	> 10	> 10	4.29 ± 1.12	3.87 ± 0.984	11.4	>60	
CC[C@@H]1CN2CCc3c([nH]c4cccc(OC)c34)[C@@H]2C[C@@H]1/C(=C\OC)C(=O)NC1CCCC1 [SUSM-506, (E)-N-cyclopentyl-2-((2S,3S,12bS)-3-ethyl-8-methoxy-1,2,3,4,6,7,12,12b-octahydroindolo[2,3-a]quinolizin-2-yl)-3-methoxyacrylamide]		1.38 ± 0.176	5.85 ± 0.657	> 10		1.38 ± 0.176	5.85 ± 0.657	> 10	8.97 ± 0.572	5.75 ± 0.568	36.4	30	
CC[C@@H]1CN2CCc3c([nH]c4cccc(OC)c34)[C@@H]2C[C@@H]1/C(=C\OC)C(=O)N1CCCC1 [SUSM-507, (E)-2-((2S,3S,12bS)-3-ethyl-8-methoxy-1,2,3,4,6,7,12,12b-octahydroindolo[2,3-a]quinolizin-2-yl)-3-methoxy-1-(pyrrolidin-1-yl)prop-2-en-1-one]		0.655 ± 0.0766	> 10	> 10		0.655 ± 0.0766	> 10	6.26 ± 3.17	9.85 ± 1.57	4.99 ± 1.02	833.8	<5	
CC[C@@H]1CN2CCc3c([nH]c4cccc(OC)c34)[C@@H]2C[C@@H]1/C(=C\OC)C(=O)N(CC)CC [SUSM-509, (E)-N,N-diethyl-2-((2S,3S,12bS)-3-ethyl-8-methoxy-1,2,3,4,6,7,12,12b-octahydroindolo[2,3-a]quinolizin-2-yl)-3-methoxyacrylamide]		1.13 ± 0.0738	> 10	> 10		1.13 ± 0.0738	> 10	> 10	5.2 ± 0.621	2.73 ± 0.488		<5	
CC[C@@H]1CN2CCc3c([nH]c4cccc(OC)c34)[C@@H]2C[C@@H]1/C(=C\OC)C(=O)N1CCCCC1 [SUSM-518, (E)-2-((2S,3S,12bS)-3-ethyl-8-methoxy-1,2,3,4,6,7,12,12b-octahydroindolo[2,3-OMea]quinolizin-2-yl)-3-methoxy-1-(piperidin-1-yl)prop-2-en-1-one]			7.46 ± 1.42	> 10		0.244 ± 0.055	7.46 ± 1.42	> 10		0.523 ± 0.155		<5	0.129
CC[C@@H]1CN2CCc3c([nH]c4cccc(OC)c34)[C@@H]2C[C@@H]1/C(=C\OC)C(=O)NC1CCCCC1 [SUSM-519, (E)-N-cyclohexyl-2-((2S,3S,12bS)-3-ethyl-8-methoxy-1,2,3,4,6,7,12,12b-octahydroindolo[2,3-a]quinolizin-2-yl)-3-methoxyacrylamide]		3.59 ± 0.663	2.79 ± 0.64	> 10		2.18 ± 0.603	2.79 ± 0.64	> 10		0.933 ± 0.242	38.4	30	
CC[C@@H]1CN2CCc3c([nH]c4cccc(OC)c34)[C@@H]2C[C@@H]1/C(=C\OC)C(=O)N(C)CC [SUSM-520, (E)-N-ethyl-2-((2S,3S,12bS)-3-ethyl-8-methoxy-1,2,3,4,6,7,12,12b-octahydroindolo[2,3-a]quinolizin-2-yl)-3-methoxy-N-methylacrylamide]		0.459 ± 0.0407	4.78 ± 1.14	> 10		0.452 ± 0.033	4.78 ± 1.14	> 10		0.938 ± 0.223	879.7	<5	
CCCN(C)C(=O)/C(=C/OC)[C@H]1C[C@H]2c3[nH]c4cccc(OC)c4c3CCN2C[C@H]1CC [SUSM-521, (E)-2-((2S,3S,12bS)-3-ethyl-8-methoxy-1,2,3,4,6,7,12,12b-octahydroindolo[2,3-a]quinolizin-2-yl)-3-methoxy-N-methyl-N-propylacrylamide]			2.61 ± 0.588	5.89 ± 0.105		0.222 ± 0.033	2.61 ± 0.588	4.03 ± 0.797		1.51 ± 0.676		<5	0.167
